{
  "source": "patent US6495598B1",
  "about": "“Perfusate preparation for ophthalmic operation” (Ophtecs Corporation, priority 2001, dated 2002)",
  "key": {"[1]": {"tested_on": "incubated bovine corneal endothelial cell", "assay": "cell-activating effect, MTT assay-based method", "conditions": "for cell-activating effect (absorbance at 450 nm): 5 and 20 mM, 48 hrs incubation, vs control containing no HBA", "method": "The D-form, D,L-form and L-form of D-3-HBA were dissolved in the DULBECCO's MEM salt incubation media at concentrations of 0 (control), 5 and 20 mM, respectively, and the resulting solutions were injected into a 24-well collagen-coated plate implanted (4×10^4 cell/ml) with a pre-incubated bovine corneal endothelial cell and then incubated for 48 hrs. After the incubation, 50 μl of cell-counting kit (product of DOJIN KAGAKU Ltd.) was added to each well to develop colors, and absorbance at 450 nm was measured by using each supernatant."}, "corneas of Dutch rabbits": {"tested_on": "corneas of Dutch rabbits", "conditions": "90 minutes irrigation", "method": "Irrigating solution No.1 (Example) and solutions No.3, No.4 and No.5 (Comparative Examples) for testing were prepared by dissolving the predetermined amounts of the components listed in Table 2 and, finally, D-3-HBA so as to adjust the total amounts of the aqueous solutions to be 1 liter; adjusting the pHs of the solutions by diluted hydrochloric acid, and subjecting the solutions to aseptic treatment.\nDutch rabbits (male and female weighing 1.9 to 2.9 kg) were used for an experiment. Experiments were performed in rabbit, anesthetized with intramuscular xylazine hydrochloride (“celactal®”, a product Bayer AG.,) and ketamine hydrochloride (“ketalar®”, a product of Sankyo Co. Ltd,.) through intramuscular injection, a 3.2-mm-wide incision was made corneas limbusing a scalpel for ocular surgery. Subsequently, 18-gauge injection needles having a rounded tip were inserted in the anterior chambers through the incisions, and the irrigating solutions were allowed to irrigate at a flow rate of 10 ml/min for 90 minutes. After the irrigation, the incisions were sewed up once by a sewing needle with a suture. The corneal thicknesses were measured by the ultrasonic pachymeter used in Example 4 before and during the perfusion (at intervals of 30 minutes)."}, "[2]": {"tested_on": "cultured bovine corneal endothelial cells damaged by ultrasound", "method": "As an invasive model assuming a phacoemulsification and aspiration method used as a surgical method of cataract, incubated bovine corneal endothelial cells damaged by ultrasound were subjected to an experiment for examining the recovery of their barrier function.\nUsing the incubated bovine corneal endothelial cells damaged by ultrasound, the barrier function-recovering effects of D-3-HBA and oxyglutathione were subjected to an experiment in accordance with the following procedure.\nThe monolayer of cultured bovine corneal endothelial cells on a filter, which had been damaged by sonication to the cells at 92 W/cm^2 three course at intervals of 0.1 sec, was incubated in DULBECCO's MEM medium (with 10% of embryonic bovine serum) containing 20 mM of D-3-HBA or 0.3 mM of oxyglutathione."}},
  "note": "Entries after “also recorded” stand apart in the source; their conditions may differ. Where two headings read alike, the source gives them in different places.",
  "data": [
    {"smiles": "CC(O)CC(=O)O", "note": "(racemic) [D,L-form, reference compound]", "values": [
      {"measurement": "cell-activating effect (absorbance at 450 nm)", "setting": "[1]", "value": "did not show a significant difference"}
    ]},
    {"smiles": "C[C@H](O)CC(=O)O", "note": "[L-form, reference compound]", "values": [
      {"measurement": "cell-activating effect (absorbance at 450 nm)", "setting": "[1]", "value": "hardly obtained; also recorded: did not show a significant difference in activity at any concentrations"}
    ]},
    {"smiles": "C[C@@H](O)CC(=O)[O-].[Na+]", "note": "[Solution D-3-HBA, sodium D-3-hydroxy butyrate]", "values": [
      {"measurement": "effect of keeping the change in the corneal thickness small", "setting": "corneas of Dutch rabbits; bicarbonate ions added to the irrigating solution (FIG. 5)", "value": "significant"},
      {"measurement": "effect of keeping the change in the corneal thickness small", "setting": "corneas of Dutch rabbits; bicarbonate ions not added to the irrigating solution (FIG. 6)", "value": "not significant"},
      {"measurement": "cell-activating effect (absorbance at 450 nm)", "setting": "[1]", "value": "the most active at any concentrations"},
      {"measurement": "cell-activating effect (absorbance at 450 nm)", "setting": "[1]; listed as D-form", "value": "activity is obtained"},
      {"measurement": "optimum concentration for cell-activating effect", "setting": "[1]; tested at 5 and 20 mM, 48 hrs", "value": 20, "unit": "mM"},
      {"measurement": "recovery of the barrier function", "setting": "[2]; 20 mM in MEM medium after sonication damage", "value": "quick recovery effect"},
      {"measurement": "electrical resistance value of the endothelial layer", "setting": "[2]; 20 mM in MEM medium, vs MEM with 0.3 mM oxyglutathione and MEM alone", "value": "closer to the value before the irradiation of ultrasound at any observation time"}
    ]}
  ]
}
